# Test results from ChEMBL document CHEMBL1201861, “Genomics of Drug Sensitity in Cancer screening data, Wellcome Trust Sanger Institute”.
# Structures can show the parent of a compound that is named as a salt.
# Legend:
# [1] = test system: HCT-116; assay: cells; type: functional, cell-based, Homo sapiens; settings: Homo sapiens, HCT-116
# Description: SANGER: Inhibition of human HCT-116 cell growth in a cell viability assay.
# [2] = test system: SUP-T1; assay: cells; type: functional, cell-based, Homo sapiens; settings: Homo sapiens, SUP-T1;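 also: growth inhibition of human SUP-T1 cells, read out as cell viability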
# Description: SANGER: Inhibition of human SUP-T1 cell growth in a cell viability assay.
# [3] = test system: NCI-H2227; assay: cells; type: functional, cell-based, Homo sapiens; settings: Homo sapiens, NCI-H2227
# Description: SANGER: Inhibition of human NCI-H2227 cell growth in a cell viability assay.
# [4] = test system: BHT-101; assay: cells; type: functional, cell-based, Homo sapiens; settings: Homo sapiens, BHT-101
# Description: SANGER: Inhibition of human BHT-101 cell growth in a cell viability assay.
# [5] = test system: NCI-H1963; assay: cells; type: functional, cell-based, Homo sapiens; settings: Homo sapiens, NCI-H1963;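 also: cell growth inhibition of the human line, determined with a cell viability assay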
# Description: SANGER: Inhibition of human NCI-H1963 cell growth in a cell viability assay.
# [6] = test system: HCT-15; assay: cells; type: functional, cell-based, Homo sapiens; settings: Homo sapiens, HCT-15;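 also: cell viability readout, IC50 reflecting suppression of HCT-15 cell growth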
# Description: SANGER: Inhibition of human HCT-15 cell growth in a cell viability assay.
# [7] = test system: RPMI 8402; assay: SANGER: Inhibition of human RPMI-8402 cell growth in a cell viability assay.; type: functional, cell-based; settings: Homo sapiens, RPMI 8402; read-out: IC50
# [8] = test system: HT55; assay: cells; type: functional, cell-based, Homo sapiens; settings: Homo sapiens, HT55;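 also: cell viability readout measuring growth inhibition of human HT55 cells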
# Description: SANGER: Inhibition of human HT55 cell growth in a cell viability assay.
# [9] = test system: PFSK-1; assay: cells; type: functional, cell-based, Homo sapiens; settings: Homo sapiens, PFSK-1;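 also: cell viability assay measuring how strongly compounds suppress growth of human PFSK-1 cells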
# Description: SANGER: Inhibition of human PFSK-1 cell growth in a cell viability assay.
# [10] = test system: Daudi; assay: cells; type: functional, cell-based, Homo sapiens; settings: Homo sapiens, Daudi
# Description: SANGER: Inhibition of human Daudi cell growth in a cell viability assay.
# [11] = test system: P31-FUJ; assay: cells; type: functional, cell-based, Homo sapiens; settings: Homo sapiens, P31-FUJ;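 also: growth inhibition of P31-FUJ cells, read out with a viability assay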
# Description: SANGER: Inhibition of human P31-FUJ cell growth in a cell viability assay.
# [12] = test system: EB2; assay: cells; type: functional, cell-based, Homo sapiens; settings: Homo sapiens, EB2;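 also: growth inhibition of EB2 cells, read out with a cell viability assay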
# Description: SANGER: Inhibition of human EB2 cell growth in a cell viability assay.
# [13] = test system: NCI-H1694; assay: cells; type: functional, cell-based, Homo sapiens; settings: Homo sapiens, NCI-H1694;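 also: cell viability assay measuring inhibition of growth in human NCI-H1694 cells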
# Description: SANGER: Inhibition of human NCI-H1694 cell growth in a cell viability assay.
# [14] = test system: SW1463; assay: cells; type: functional, cell-based, Homo sapiens; settings: Homo sapiens, SW1463;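 also: growth inhibition of SW1463 cells, determined with a cell viability assay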
# Description: SANGER: Inhibition of human SW1463 cell growth in a cell viability assay.
# [15] = test system: HT-1376; assay: cells; type: functional, cell-based, Homo sapiens; settings: Homo sapiens, HT-1376
# Description: SANGER: Inhibition of human HT-1376 cell growth in a cell viability assay.
# [16] = test system: EHEB; assay: cells; type: functional, cell-based, Homo sapiens; settings: Homo sapiens, EHEB
# Description: SANGER: Inhibition of human EHEB cell growth in a cell viability assay.
# [17] = test system: JEG-3; assay: cells; type: functional, cell-based, Homo sapiens; settings: Homo sapiens, JEG-3;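 also: growth inhibition of human JEG-3 cells, read out with a cell viability assay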
# Description: SANGER: Inhibition of human JEG-3 cell growth in a cell viability assay.
# [18] = test system: MG-63; assay: cells; type: functional, cell-based, Homo sapiens; settings: Homo sapiens, MG-63;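 also: growth inhibition of human MG-63 cells, read out with a cell viability assay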
# Description: SANGER: Inhibition of human MG-63 cell growth in a cell viability assay.
# [19] = test system: SF-295; assay: cells; type: functional, cell-based, Homo sapiens; settings: Homo sapiens, SF-295;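 also: growth inhibition of SF-295 cells, read out with a cell viability assay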
# Description: SANGER: Inhibition of human SF295 cell growth in a cell viability assay.
# [20] = test system: TE-441-T; assay: cells; type: functional, cell-based, Homo sapiens; settings: Homo sapiens, TE-441-T
# Description: SANGER: Inhibition of human TE-441-T cell growth in a cell viability assay.
# [21] = test system: IMR-5; assay: cells; type: functional, cell-based, Homo sapiens; settings: Homo sapiens, IMR-5;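 also: growth inhibition of human IMR-5 cells, read out with a cell viability assay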
# Description: SANGER: Inhibition of human IMR-5 cell growth in a cell viability assay.
# [22] = test system: FTC-133; assay: cells; type: functional, cell-based, Homo sapiens; settings: Homo sapiens, FTC-133
# [23] = test system: HOP-92; assay: cells; type: functional, cell-based, Homo sapiens; settings: Homo sapiens, HOP-92;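 also: cell viability readout, with IC50 reflecting inhibition of HOP-92 cell growth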
# Description: SANGER: Inhibition of human HOP-92 cell growth in a cell viability assay.
# [24] = test system: NCI-H2122; assay: cells; type: functional, cell-based, Homo sapiens; settings: Homo sapiens, NCI-H2122
# Description: SANGER: Inhibition of human NCI-H2122 cell growth in a cell viability assay.
# [25] = test system: SW1710; assay: cells; type: functional, cell-based, Homo sapiens; settings: Homo sapiens, SW1710;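 also: growth inhibition of SW1710 cells, determined with a cell viability assay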
# Description: SANGER: Inhibition of human SW1710 cell growth in a cell viability assay.
# [26] = test system: CAL-54; assay: cells; type: functional, cell-based, Homo sapiens; settings: Homo sapiens, CAL-54;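 also: growth inhibition of CAL-54 cells, read out by a viability measurement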
# Description: SANGER: Inhibition of human CAL-54 cell growth in a cell viability assay.
# [27] = test system: SNU-449; assay: cells; type: functional, cell-based, Homo sapiens; settings: Homo sapiens, SNU-449
# Description: SANGER: Inhibition of human SNU-449 cell growth in a cell viability assay.
# [28] = test system: BFTC-905; assay: cells; type: functional, cell-based, Homo sapiens; settings: Homo sapiens, BFTC-905
# Description: SANGER: Inhibition of human BFTC-905 cell growth in a cell viability assay.
# [29] = test system: SK-MES-1; assay: cells; type: functional, cell-based, Homo sapiens; settings: Homo sapiens, SK-MES-1;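 also: growth inhibition of human SK-MES-1 cells, read out with a cell viability assay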
# Description: SANGER: Inhibition of human SK-MES-1 cell growth in a cell viability assay.
# [30] = test system: SAOS-2; assay: cells; type: functional, cell-based, Homo sapiens; settings: Homo sapiens, SAOS-2;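 also: growth inhibition of human Saos-2 cells determined by a cell viability assay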
# Description: SANGER: Inhibition of human Saos-2 cell growth in a cell viability assay.
# [31] = test system: ESS-1; assay: cells; type: functional, cell-based, Homo sapiens; settings: Homo sapiens, ESS-1;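 also: growth inhibition of human ESS-1 cells, read out by a cell viability assay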
# Description: SANGER: Inhibition of human ESS-1 cell growth in a cell viability assay.
# [32] = test system: YKG-1; assay: cells; type: functional, cell-based, Homo sapiens; settings: Homo sapiens, YKG-1
# Description: SANGER: Inhibition of human YKG-1 cell growth in a cell viability assay.
# [33] = test system: RVH-421; assay: cells; type: functional, cell-based, Homo sapiens; settings: Homo sapiens, RVH-421
# Description: SANGER: Inhibition of human RVH-421 cell growth in a cell viability assay.
# [34] = test system: CP50-MEL-B; assay: cells; type: functional, cell-based, Homo sapiens; settings: Homo sapiens, CP50-MEL-B;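 also: growth inhibition of the human cell line, measured with a cell viability read-out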
# Description: SANGER: Inhibition of human CP50-MEL-B cell growth in a cell viability assay.
# [35] = test system: KYSE-150 cell line; assay: cells; type: functional, cell-based, Homo sapiens; settings: Homo sapiens, KYSE-150;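 also: growth inhibition of human KYSE-150 cells, read out with a cell viability assay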
# Description: SANGER: Inhibition of human KYSE-150 cell growth in a cell viability assay.
# [36] = test system: YT; assay: cells; type: functional, cell-based, Homo sapiens; settings: Homo sapiens, YT
# Description: SANGER: Inhibition of human YT cell growth in a cell viability assay.
# [37] = test system: AN3-CA; assay: cells; type: functional, cell-based, Homo sapiens; settings: Homo sapiens, AN3-CA;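 also: growth inhibition of human AN3-CA cells measured by a cell viability assay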
# Description: SANGER: Inhibition of human AN3-CA cell growth in a cell viability assay.
# [38] = test system: NCI-H1993; assay: cells; type: functional, cell-based, Homo sapiens; settings: Homo sapiens, NCI-H1993;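 also: growth inhibition of the cancer cell line, assessed with a cell viability assay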
# Description: SANGER: Inhibition of human NCI-H1993 cell growth in a cell viability assay.
# [39] = test system: HCC1806; assay: cells; type: functional, cell-based, Homo sapiens; settings: Homo sapiens, HCC1806;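 also: growth inhibition of the cancer cell line, determined with a cell viability assay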
# Description: SANGER: Inhibition of human HCC1806 cell growth in a cell viability assay.
# [40] = test system: ECC4; assay: cells; type: functional, cell-based, Homo sapiens; settings: Homo sapiens, ECC4;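 also: growth inhibition of ECC4 cells, read out with a cell viability assay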
# Description: SANGER: Inhibition of human ECC4 cell growth in a cell viability assay.
# [41] = test system: PA-1; assay: cells; type: functional, cell-based, Homo sapiens; settings: Homo sapiens, PA-1;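 also: IC50 for suppression of PA-1 cell proliferation, determined with a cell viability read-out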
# Description: SANGER: Inhibition of human PA-1 cell growth in a cell viability assay.
# [42] = test system: UMC-11; assay: cells; type: functional, cell-based, Homo sapiens; settings: Homo sapiens, UMC-11;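 also: growth inhibition of UMC-11 cells, read out with a cell viability assay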
# Description: SANGER: Inhibition of human UMC-11 cell growth in a cell viability assay.
# [43] = test system: CAL-51; assay: cells; type: functional, cell-based, Homo sapiens; settings: Homo sapiens, CAL-51;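 also: human CAL-51 cell line, growth inhibition read out via a cell viability assay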
# Description: SANGER: Inhibition of human CAL-51 cell growth in a cell viability assay.
# [44] = test system: CPC-N; assay: cells; type: functional, cell-based, Homo sapiens; settings: Homo sapiens, CPC-N;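 also: growth inhibition of CPC-N cells, with a cell viability assay as the readout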
# Description: SANGER: Inhibition of human CPC-N cell growth in a cell viability assay.
# [45] = test system: KP-N-YN; assay: cells; type: functional, cell-based, Homo sapiens; settings: Homo sapiens, KP-N-YN;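 also: growth inhibition of KP-N-YN cells, read out with a cell viability assay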
# Description: SANGER: Inhibition of human KP-N-YN cell growth in a cell viability assay.
smiles,measurement,setting,value
C=C(c1ccc(C(=O)O)cc1)c1cc2c(cc1C)C(C)(C)CCC2(C)C [BEXAROTENE],IC50,[1],> 8000 nM
same,IC50,[2],> 8000 nM
same,IC50,[3],> 8000 nM
same,IC50,[4],> 8000 nM
same,IC50,[5],> 8000 nM
same,IC50,[6],> 8000 nM
same,IC50,[7],> 8000 nM
same,IC50,[8],> 8000 nM
same,IC50,[9],> 8000 nM
same,IC50,[10],> 8000 nM
same,IC50,[11],> 8000 nM
same,IC50,[12],> 8000 nM
same,IC50,[13],> 8000 nM
same,IC50,[14],> 8000 nM
same,IC50,[15],> 8000 nM
same,IC50,[16],> 8000 nM
same,IC50,[17],> 8000 nM
same,IC50,[18],789 nM
same,IC50,[19],5170 nM
same,IC50,[20],> 8000 nM
same,IC50,[21],> 8000 nM
same,IC50,[22],> 8000 nM
same,IC50,[23],> 8000 nM
same,IC50,[24],4940 nM
same,IC50,[25],> 8000 nM
same,IC50,[26],> 8000 nM
same,IC50,[27],> 8000 nM
same,IC50,[28],> 8000 nM
same,IC50,[29],> 8000 nM
same,IC50,[30],> 8000 nM
same,IC50,[31],> 8000 nM
same,IC50,[32],> 8000 nM
same,IC50,[33],> 8000 nM
same,IC50,[34],> 8000 nM
same,IC50,[35],> 8000 nM
same,IC50,[36],> 8000 nM
same,IC50,[37],> 8000 nM
same,IC50,[38],> 8000 nM
same,IC50,[39],> 8000 nM
same,IC50,[40],> 8000 nM
same,IC50,[41],> 8000 nM
same,IC50,[42],> 8000 nM
same,IC50,[43],> 8000 nM
same,IC50,[44],> 8000 nM
COc1cccc2c1C(=O)c1c(O)c3c(c(O)c1C2=O)C[C@@](O)(C(=O)CO)C[C@@H]3O[C@H]1C[C@H](N)[C@H](O)[C@H](C)O1 [DOXORUBICIN],IC50,[2],79.7 nM
same,IC50,[3],> 1020 nM
same,IC50,[4],396 nM
same,IC50,[5],430 nM
same,IC50,[6],> 1020 nM
same,IC50,[7],53.9 nM
same,IC50,[8],> 1020 nM
same,IC50,[9],678 nM
same,IC50,[10],69 nM
same,IC50,[11],> 1020 nM
same,IC50,[12],33.7 nM
same,IC50,[13],200 nM
same,IC50,[14],> 1020 nM
same,IC50,[15],189 nM
same,IC50,[16],113 nM
same,IC50,[17],95.1 nM
same,IC50,[18],22.1 nM
same,IC50,[19],49.1 nM
same,IC50,[20],89.8 nM
same,IC50,[21],34.7 nM
same,IC50,[22],229 nM
same,IC50,[23],291 nM
same,IC50,[24],37.9 nM
same,IC50,[25],17.4 nM
same,IC50,[26],301 nM
same,IC50,[27],548 nM
same,IC50,[28],16.2 nM
same,IC50,[29],31.5 nM
same,IC50,[30],330 nM
same,IC50,[31],11.1 nM
same,IC50,[32],18.8 nM
same,IC50,[33],169 nM
same,IC50,[34],> 1020 nM
same,IC50,[35],27.8 nM
same,IC50,[36],> 1020 nM
same,IC50,[45],> 1020 nM
same,IC50,[37],72.3 nM
same,IC50,[38],1000 nM
same,IC50,[39],75 nM
same,IC50,[40],> 1020 nM
same,IC50,[41],44.5 nM
same,IC50,[42],331 nM
same,IC50,[43],17.3 nM
same,IC50,[44],68.4 nM
COC1=CC(c2cc3ccccc3[nH]2)=N/C1=C\c1[nH]c(C)cc1C [OBATOCLAX MESYLATE],IC50,[1],88 nM
same,IC50,[2],29.5 nM
same,IC50,[3],> 16000 nM
same,IC50,[4],< 62.5 nM
same,IC50,[5],1050 nM
same,IC50,[6],225 nM
same,IC50,[7],18.6 nM
same,IC50,[8],2790 nM
same,IC50,[9],1210 nM
same,IC50,[10],70.8 nM
same,IC50,[11],> 16000 nM
same,IC50,[12],< 62.5 nM
same,IC50,[13],919 nM
same,IC50,[14],1320 nM
same,IC50,[15],127 nM
same,IC50,[16],823 nM
same,IC50,[17],1500 nM
same,IC50,[18],214 nM
same,IC50,[19],340 nM
same,IC50,[20],1430 nM
same,IC50,[21],32.4 nM
same,IC50,[22],3650 nM
same,IC50,[23],368 nM
same,IC50,[24],93.8 nM
same,IC50,[25],40.2 nM
same,IC50,[26],1310 nM
same,IC50,[27],208 nM
same,IC50,[28],79.1 nM
same,IC50,[29],129 nM
same,IC50,[30],246 nM
same,IC50,[31],72.5 nM
same,IC50,[32],163 nM
same,IC50,[33],16.7 nM
same,IC50,[34],87.9 nM
same,IC50,[35],40.1 nM
same,IC50,[36],73.4 nM
same,IC50,[45],> 16000 nM
same,IC50,[37],156 nM
same,IC50,[38],> 16000 nM
same,IC50,[39],124 nM
same,IC50,[40],5090 nM
same,IC50,[41],87.7 nM
same,IC50,[42],1400 nM
same,IC50,[43],40 nM
same,IC50,[44],1980 nM
